Columns and labels:
rat HIF2α = molecular target: T1, rat HIF2α (Rattus norvegicus, UniProt Q9JHS1); experiment: isothermal titration calorimetry (iTC200), purified PAS-B domain titrated into PT2567; format: binding
T1 construct: gene Epas1; PAS-B domain (rat HIF2α-B, made from the human HIF2α-B expression vector by mutating T262L, I265V and I326V)

HIF2α = molecular target: T2, HIF2α (Homo sapiens, UniProt Q99814); experiment: as above; format: binding
T2 construct: gene EPAS1; PAS-B domain (human HIF2α-B)
T2 sequence (Q99814 240-350 limits assumed): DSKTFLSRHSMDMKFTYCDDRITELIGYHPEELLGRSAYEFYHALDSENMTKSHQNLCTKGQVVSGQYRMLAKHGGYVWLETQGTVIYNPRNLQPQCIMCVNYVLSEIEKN

T1 sequence (Q9JHS1 240-350 limits assumed): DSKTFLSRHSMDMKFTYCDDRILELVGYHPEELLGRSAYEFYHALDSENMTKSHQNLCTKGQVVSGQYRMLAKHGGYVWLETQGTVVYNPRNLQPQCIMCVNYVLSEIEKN

Kd (rat HIF2α): 29 nM | Kd (HIF2α): 30 nM
Substance: PT2567

Source: publication PMC7930471, “Targeting HIF2α-ARNT hetero-dimerisation as a novel therapeutic strategy for pulmonary arterial hypertension” (The European Respiratory Journal, 2021)
